In PMC10671313, “First Gallium and Indium Crystal Structures of Curcuminoid Homoleptic Complexes: All-Different Ligand Stereochemistry and Cytotoxic Potential” (International Journal of Molecular Sciences, 2023):
“Also recorded” adds a separate entry of the source. Like-named read-outs stand apart in the source and are kept apart here.

Tests used:
Format in all cases: cell-based
[1] = test system: U251 (human glioblastoma); test: SRB cytotoxicity assay, U251 cells
Method: (§1) The cytotoxicity of all compounds was assessed against several cancer cell lines, namely U251 (human glioblastoma), PC-3 (human prostate adenocarcinoma), K562 (human chronic myelogenous leukemia), HCT-15 (human colon adenocarcinoma), MCF-7 (human mammary adenocarcinoma), SKLU-1 (human lung adenocarcinoma), and COS-7 (non-tumoral monkey kidney). These cell lines were obtained from the U.S. National Cancer Institute (NCI) (Montgomery County, MD, USA). The cells were cultured in RPMI-1640 medium supplemented with 10% fetal bovine serum, 2 mM L-glutamine, 10,000 units/mL penicillin G sodium, 10,000 μg/mL streptomycin sulfate, 25 μg/mL amphotericin B (Invitrogen/Gibco^TM, Thermo Fisher Scientific, Waltham, MA, USA), and 1% non-essential amino acids (Gibco). They were maintained at a temperature of 37 °C in a humidified atmosphere containing 5% CO2. The experiment’s cell viability exceeded 95%, as determined using trypan blue staining. To evaluate the cytotoxicity on human tumor cells, the protein-binding dye sulforhodamine B (SRB) was employed in a microculture assay, following the protocols established by the NCI [52, 53, 54]. The results were reported as IC50 values, representing the inhibitory concentration required for 50% inhibition. The IC50 values were determined using the Monks protocol, which involved plotting dose-response curves for each compound and estimating the concentration (IC50) at which a 50% inhibition was observed through non-linear regression analysis.

[2] = test system: MCF-7 (human mammary adenocarcinoma); test: SRB cytotoxicity assay, MCF-7 cells
Method: as §1

[3] = test system: HCT-15 (human colon adenocarcinoma); test: SRB cytotoxicity assay, HCT-15 cells
Method: as §1

[4] = test system: SKLU-1 (human lung adenocarcinoma); test: SRB cytotoxicity assay, SKLU-1 cells
Method: as §1

[5] = test system: PC-3 (human prostate adenocarcinoma); test: SRB cytotoxicity assay, PC-3 cells
Method: as §1

[6] = test system: K562 (human chronic myelogenous leukemia); test: SRB cytotoxicity assay, K562 cells
Method: as §1

[7] = test system: COS-7 (non-tumoral monkey kidney); test: SRB cytotoxicity assay, COS-7 non-tumoral cells
Method: as §1

[8] = U251 cell line, SRB assay, read-out: IC50 U251
[9] = MCF7 cell line, SRB assay, read-out: IC50 MCF7
[10] = HCT15 cell line, SRB assay, read-out: IC50 HCT15
[11] = SKLU-1 cell line, SRB assay, read-out: IC50 SKLU-1
[12] = PC-3 cell line, SRB assay, read-out: IC50 PC-3
[13] = K562 cell line, SRB assay, read-out: IC50 K562
[14] = non-cancerous COS-7 cells, SRB assay, read-out: IC50 COS-7

Molecule | IC50 [1, 8] [µM] | IC50 [2, 9] [µM] | IC50 [3, 10] [µM] | IC50 [4, 11] [µM] | IC50 [5, 12] [µM] | IC50 [6, 13] [µM] | IC50 [7, 14] [µM] | also measured
Dimethoxycurcumin indium [(DiMeOC)3-In] | 6.3 ± 0.6 | 9.7 ± 0.4 | 7.9 ± 0.2 | 6.2 ± 0.4 | 7.6 ± 0.05 |  |  | 
N.N.[Cl][Pt][Cl] [Cisplatin, reference compound] |  |  | 10 ± 0.9 |  |  |  |  | 
Curcumin [reference compound] | 20.5 ± 1.7 | 18.4 ± 0.9 | 21.3 ± 0.9 | 12.9 ± 0.7 | 22.5 ± 1.9 | 16.4 ± 0.04 | 21.8 ± 2.1 | 
Dimethoxycurcumin gallium [(DiMeOC)2-Ga] | 5.3 ± 0.1 | 15.5 ± 0.4 |  |  | 10.5 ± 0.3 | 2 ± 0.2 | 23.2 ± 1.9 | Selectivity: IC50 in COS-7 compared to U251 ([1]; COS-7 vs U251, times less cytotoxic): 4 times; Selectivity: IC50 in COS-7 compared to K562 ([6]; COS-7 vs K562, times less cytotoxic): 11 times; Selectivity: IC50 in COS-7 compared to PC-3 ([5]; COS-7 vs PC-3, times less cytotoxic): 2 times; Toxicity relative to cisplatin ([7]; lower toxicity than cisplatin (non-cancerous COS-7)): three times lesser toxicity than cisplatin; also recorded: up to three times lower toxicity than cisplatin
COc1ccc(/C=C/C(=O)/C=C(O)/C=C/c2ccc(OC)c(OC)c2)cc1OC [DiMeOC, Dimethoxycurcumin] |  |  |  |  |  |  |  | IC50 ([1]; Homo sapiens, U-251, read-out: IC50 U251): 2.02 ± 0.07 µM; IC50 ([2]; Homo sapiens, MCF7, read-out: IC50 MCF7): 6.9 ± 1 µM; IC50 ([6]; Homo sapiens, K562, read-out: IC50 K562): 6.5 ± 1.4 µM; IC50 ([3]; Homo sapiens, HCT-15, read-out: IC50 HCT15): 6.6 ± 0.3 µM; IC50 ([4]; Homo sapiens, SK-LU-1, read-out: IC50 SKLU-1): 7.2 ± 0.4 µM; IC50 ([5]; Homo sapiens, PC-3, read-out: IC50 PC-3): 5.9 ± 0.6 µM; IC50 ([7]; Primates, COS-7, read-out: IC50 COS-7): 2.02 ± 0.07 µM
